This is an account of results in article PMC5491650, “Structure-Activity Relationships of Pentacyclic Triterpenoids as Potent and Selective Inhibitors against Human Carboxylesterase 1” (Frontiers in Pharmacology, 2017).

Format in all cases: biochemical
For one assay, the target named is T1, hCE2 (Homo sapiens, UniProt O00748).
T1 construct: tissue Celsis (Shanghai, China); host or cells: human liver microsomes (HLM)
T1 sequence (O00748 27-559): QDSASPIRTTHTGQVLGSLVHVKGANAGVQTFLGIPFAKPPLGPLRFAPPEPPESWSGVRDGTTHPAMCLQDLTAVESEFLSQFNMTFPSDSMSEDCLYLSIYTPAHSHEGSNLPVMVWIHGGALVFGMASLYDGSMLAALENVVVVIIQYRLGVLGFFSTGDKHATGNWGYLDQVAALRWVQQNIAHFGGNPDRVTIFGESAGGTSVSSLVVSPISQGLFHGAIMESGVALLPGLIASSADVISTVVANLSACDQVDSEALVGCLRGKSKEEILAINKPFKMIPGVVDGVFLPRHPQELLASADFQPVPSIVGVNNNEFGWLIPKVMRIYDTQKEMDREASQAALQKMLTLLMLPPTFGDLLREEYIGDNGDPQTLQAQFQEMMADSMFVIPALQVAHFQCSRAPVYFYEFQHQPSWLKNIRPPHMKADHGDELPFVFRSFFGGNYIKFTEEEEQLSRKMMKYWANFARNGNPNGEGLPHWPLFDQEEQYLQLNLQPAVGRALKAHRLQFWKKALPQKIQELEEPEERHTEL
Description: hCE2 inhibition assay, DDAB hydrolysis in human liver microsomes. The following applies: DDAB as probe substrate, HLM; averages of at least three experiments; read-out: IC50 (hCE2).

Assay [1] has as its target T2, hCE1 (Homo sapiens, UniProt P23141).
T2 sequence (P23141 18-567): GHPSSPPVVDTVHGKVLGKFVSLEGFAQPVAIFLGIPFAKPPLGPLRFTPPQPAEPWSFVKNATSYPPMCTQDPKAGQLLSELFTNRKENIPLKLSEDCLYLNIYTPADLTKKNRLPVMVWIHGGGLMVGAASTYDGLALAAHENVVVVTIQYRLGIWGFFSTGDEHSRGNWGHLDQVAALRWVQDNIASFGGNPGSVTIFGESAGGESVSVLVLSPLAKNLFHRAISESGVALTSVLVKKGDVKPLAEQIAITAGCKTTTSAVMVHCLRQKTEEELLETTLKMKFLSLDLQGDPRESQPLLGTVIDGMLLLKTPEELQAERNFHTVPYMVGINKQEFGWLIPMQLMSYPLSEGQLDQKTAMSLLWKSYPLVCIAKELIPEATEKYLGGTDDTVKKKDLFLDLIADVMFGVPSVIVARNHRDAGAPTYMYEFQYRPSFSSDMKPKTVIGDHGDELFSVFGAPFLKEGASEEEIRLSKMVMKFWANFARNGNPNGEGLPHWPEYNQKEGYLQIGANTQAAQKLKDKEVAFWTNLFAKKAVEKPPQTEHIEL
The experiment in a line: Inhibition of DME hydrolysis by recombinant hCE1. Here is the method:
To further investigate the inhibitory behaviors of compound 22 on the catalytic activity of hCE1, the inhibition behaviors of this compound against hCE1 were performed. […] In addition, the inhibitory tendency and potency of compound 22 against DME-hydrolysis in both HLMs and hCE1 were much closed (Figure S1).

Assay [2] addresses T2, hCE1. Description: hCE1 inhibition assay, DME hydrolysis in human liver microsomes.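 As to all read-outs here: carboxylesterase inhibition read out as probe hydrolysis, with DME serving as hCE1 substrate and DDAB as hCE2 substrate, in DMSO below 2% (V/V).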 The note with it: for Observed Log(IC50_hCE1): log of the experimental IC50 in μM, used for 3D-QSAR. Further details: tissue Celsis (Shanghai, China); host or cells: human liver microsomes (HLM).
Description: (§1) All fluorescence-based assays were performed on Synergy H^1 Hybrid Multi-Mode Microplate Reader (BioTek, USA).
(§2) The inhibitory effects toward CEs were assayed using DME and DDAB as the specific probe substrates for hCE1 and hCE2, respectively. […] Control incubations without BNPP were also performed. After incubation, ice-cold acetonitrile (equal volume of incubation mixture, 200 μL) was added to terminate the reaction. The mixture was then centrifuged at 20,000 g for 20 min at 4°C. All these compounds dissolved in DMSO, and the final concentration of DMSO was <2% (V/V). Aliquots of the supernatant were then taken for further microplate reader analyses. […] First, each of the potential esterase inhibitors was pre-incubated with HLM at 37°C for 10 min with shaking in microplate reader. Then DME was added to start the reaction. After incubation at 37°C for 10 min in a shaking bath, LDR (equal volume of incubation mixture, 50 μL) was added to terminate the reaction, and luminescence measurements were conducted as described above.
The target of assay [3] is T2, hCE1. The experiment in a line: Inhibition of hCE1-mediated BMBT hydrolysis in HLMs. On the set-up: tissue Celsis (Shanghai, China); host or cells: human liver microsomes (HLM). Here is the method:
The half maximal inhibitory concentration (IC50) of each compound was determined using various inhibitor concentrations under the same incubation conditions as mentioned above. The inhibition constant (Ki) values of compound 22 against hCE1 in HLM were determined using varied concentrations of DME in the presence or absence of each inhibitor. […] Dixon plot and Lineweaver-Burk plots were used to fit the data. The inhibition kinetic type was evaluated by determining the intersection point in the Dixon and Lineweaver-Burk plots. The second plots based on the slopes from Lineweaver-Burk plot vs. inhibitor concentrations were utilized to calculate each the inhibition constant (Ki) value (Wang et al., [2015]; Zhu et al., [2015], [2016]).
To this end, another optical probe substrate (BMBT) for hCE1 was used for further investigation on the inhibition behaviors of compound 22 (Liu et al., [2014]).

“Also recorded” adds a separate entry of the source.

Description for hCE2: as §1, §2

For `CC1CCC2(C(=O)O)CCC3(C)C(=CCC4C5(C)CCC(OC(=O)CCC(=O)O)C(C)(C)C5CCC43C)C2C1C` (stereo not drawn) [Compound 22, 3β-O-(β-carboxypropionyl)-urs-12-en-28-oic acid], the IC50 on hCE2 amounted to 83 µM; at hCE1 [1], 0.0092 µM; at hCE1 [2] (IC50 (hCE1), DME as probe substrate, HLM, averages of at least three experiments) it was 0.012 µM; against hCE1 [2] (IC50 against hCE1, DME hydrolysis in HLM), 0.0126 µM; at hCE1 [3], 0.0303 µM. Moreover, the Ki was determined as 0.0126 µM on hCE1 [2] and 0.0355 µM on hCE1 [3]. The “inhibition type against hCE1-mediated DME hydrolysis” value against hCE1 [2] (HLMs, Lineweaver-Burk plots) was “competitive inhibitor; also recorded: competitive inhibition”. Also, at hCE1 [2] (calculated from IC50 (hCE2)/IC50 (hCE1) as printed), the Selectivity is 6919.2. Moreover, at hCE1 [2] (hCE1 versus hCE2, values of the text), the “selectivity over hCE2” value was 6,919 fold. The “Observed Log(IC50_hCE1)” value at hCE1 [2] is recorded as -1.921 μM. The “inhibition type against hCE1-mediated BMBT hydrolysis” value against hCE1 [3] (HLMs, Lineweaver-Burk plot) is reported as “non-competitive inhibitor”.

Consider `CC1(C(=O)O)CCC2(C)CCC3(C)C(=CCC4C5(C)CCC(OC(=O)CCC(=O)O)C(C)(C)C5CCC43C)C2C1` (stereo not drawn) [Compound 27, 3β-O-(β-carboxypropionyl)-olean-12-en-30-oic acid], for which the IC50 on hCE2 is 3.16 µM; at hCE1 [2] (DME as probe substrate, HLM, averages of at least three experiments, read-out: IC50 (hCE1)) it was 6.94 µM. Also, the “Observed Log(IC50_hCE1)” value on hCE1 [2] was determined as 0.8414 μM.
